Patent publication US7166275B2, “Compositions containing phenethyl aryl esters as solubilizing agents for active organic compounds” (ISP Investments Inc., priority 2003, dated 2007)

Legend:
[1] = Solubility of solid organic sunscreens (Escalol 517, Escalol 567) in various solvents; type: physicochemical; settings: solutions prepared at 50° C., stood 1 week at 25° C., seeded
Description: A small seed crystal was added at 25° C. to hasten equilibration.

[2] = Solubility of active compounds in 2-phenylethyl benzoate, determined by GLC; type: physicochemical; settings: for Solubility (soluble up to) in 2-phenylethyl benzoate: solvent 2-phenylethyl benzoate, 25° C.
Description: Predetermined weight/weight (w/w) solutions were prepared at 50° C. using a given solvent and Escalol® 517 or Escalol® 567. […] A small seed crystal was added at 25° C. to hasten equilibration. Solubility limits were determined by observation of the amount of solid present, and then more precisely by a GLC method (see Example 15).
5-Chloro-2-(2,4-dichlorophenoxy)phenol (Triclosan) has bacteriostatic properties and is used as a disinfectant and preservative in cosmetic and detergent preparations. It is soluble up to 69% w/w in 2-phenylethyl benzoate, as determined by GLC. Thus, 50% w/w and 60% w/w mixtures were homogeneous solutions at 25° C., but a 70% w/w solution prepared at 70° C. precipitated a small amount of solid when seeded at 25° C. and allowed to stand for 3 days.
An 80% w/w solution prepared from 8.002 g of Triclosan and 2.009 g of 2-phenylethyl benzoate precipitated a significant amount of solid at 25° C. A 23.3-mg sample of the supernatant was dissolved in 1.00 mL of chloroform and 1.00 μL was injected via automatic injector into a GLC instrument. The areas of the 2-phenylethyl benzoate and Triclosan peaks were 9381 and 12953, respectively. The mixture was heated at 70° C. until it was homogeneous, and an 18.2-mg sample was dissolved and injected in the same manner. […] (Note that the amount injected was 3.6 μg+14.6 μg=18.2 μg.) Therefore, under our GLC conditions the response factors were 1240 units/μg and 770 units/μg, respectively. Then, the respective amounts of each component in the supernatant were 9381/1240 =7.6 μg and 12953/770 =16.8 μg, which corresponds to 69% w/w Triclosan.

## O=C(OCCc1ccccc1)c1ccccc1C(=O)OCCc1ccccc1 [Di-2-phenylethyl phthalate, di-2-phenylethyl phthalate]
[1]; solute Escalol 517 (avobenzone)
  Solubility of Escalol 517 in the solvent: 30 % w/w
[1]; solute Escalol 567 (benzophenone-3)
  Solubility of Escalol 567 in the solvent: 31 % w/w

## CCCN(CCC)c1c([N+](=O)[O-])cc(C(F)(F)F)c(N)c1[N+](=O)[O-] [Prodiamine, 5-Dipropylamino-α,α,α-trifluoro-4,6-dinitro-o-toluidine]
[2]; solvent 2-phenylethyl benzoate/N-methylpyrrolidinone (1:1 w/w)
  Solubility (soluble up to) in 2-phenylethyl benzoate/N-methylpyrrolidinone (1:1 w/w): 24 % w/w
[2]
  Solubility (soluble up to) in 2-phenylethyl benzoate: 5 % w/w

## Oc1cc(Cl)ccc1Oc1ccc(Cl)cc1Cl [Triclosan, 5-Chloro-2-(2,4-dichlorophenoxy)phenol]
[2]
  Solubility (soluble up to) in 2-phenylethyl benzoate: 69 % w/w
